According to doi:10.1101/2024.04.19.590212v1 (biorxiv, 2024):
Read-outs that look alike come from different tables or passages of the source.

Columns and labels:
5-HT1BR [1] = molecular target: T1, 5-HT1BR (Homo sapiens, UniProt P28222); assay: cell-based
5-HT2CR [2] = molecular target: T2, 5-HT2CR (Homo sapiens, UniProt P28335); settings: agonist mode; partial agonist
5-HT2AR [3] = molecular target: T3, 5-HT2AR (Homo sapiens, UniProt P28223); assay: cell-based; settings: U2OS, read-out: 5-HT2AR Rmax (internalization)
5-HT2CR [4] = molecular target: T2, 5-HT2CR; settings: antagonist mode against 5-HT-induced response; incomplete inhibition
5-HT2CR [5] = molecular target: T2, 5-HT2CR; assay: cell-based
5-HT2CR [6] = molecular target: T2, 5-HT2CR; assay: cell-based; remark: listed apart in the source
5-HT1BR [7] = molecular target: T1, 5-HT1BR; assay: cell-based; settings: CHO-K1, read-out: 5-HT1BR Rmax (cAMP)
5-HT2AR [8] = molecular target: T3, 5-HT2AR; assay: cell-based; settings: U2OS, read-out: 5-HT2AR Rmax (beta-arrestin)
5-HT1BR [9] = molecular target: T1, 5-HT1BR; assay: cell-based; remark: listed apart in the source

T2 sequence (P28335 33-458): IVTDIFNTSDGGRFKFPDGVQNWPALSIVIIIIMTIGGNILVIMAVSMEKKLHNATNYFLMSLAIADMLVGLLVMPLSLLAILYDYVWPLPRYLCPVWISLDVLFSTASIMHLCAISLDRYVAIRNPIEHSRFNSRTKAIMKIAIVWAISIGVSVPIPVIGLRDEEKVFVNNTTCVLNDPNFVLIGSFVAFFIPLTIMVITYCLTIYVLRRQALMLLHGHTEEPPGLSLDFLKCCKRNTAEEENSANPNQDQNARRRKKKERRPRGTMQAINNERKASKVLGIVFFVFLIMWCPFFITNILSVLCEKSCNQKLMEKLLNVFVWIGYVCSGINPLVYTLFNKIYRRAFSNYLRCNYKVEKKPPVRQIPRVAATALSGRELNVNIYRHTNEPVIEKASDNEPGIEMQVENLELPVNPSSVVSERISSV
T1 sequence (P28222 whole entry): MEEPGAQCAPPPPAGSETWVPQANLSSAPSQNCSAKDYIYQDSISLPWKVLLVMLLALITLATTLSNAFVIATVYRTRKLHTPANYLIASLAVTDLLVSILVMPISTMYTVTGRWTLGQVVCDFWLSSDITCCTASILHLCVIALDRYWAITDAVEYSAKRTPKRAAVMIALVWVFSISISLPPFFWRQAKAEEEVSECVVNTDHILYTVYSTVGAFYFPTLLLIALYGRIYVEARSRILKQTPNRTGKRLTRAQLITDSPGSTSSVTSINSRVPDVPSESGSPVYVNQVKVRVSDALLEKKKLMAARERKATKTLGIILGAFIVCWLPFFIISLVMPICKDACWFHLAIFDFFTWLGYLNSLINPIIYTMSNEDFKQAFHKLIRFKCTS
T3 sequence (P28223 whole entry): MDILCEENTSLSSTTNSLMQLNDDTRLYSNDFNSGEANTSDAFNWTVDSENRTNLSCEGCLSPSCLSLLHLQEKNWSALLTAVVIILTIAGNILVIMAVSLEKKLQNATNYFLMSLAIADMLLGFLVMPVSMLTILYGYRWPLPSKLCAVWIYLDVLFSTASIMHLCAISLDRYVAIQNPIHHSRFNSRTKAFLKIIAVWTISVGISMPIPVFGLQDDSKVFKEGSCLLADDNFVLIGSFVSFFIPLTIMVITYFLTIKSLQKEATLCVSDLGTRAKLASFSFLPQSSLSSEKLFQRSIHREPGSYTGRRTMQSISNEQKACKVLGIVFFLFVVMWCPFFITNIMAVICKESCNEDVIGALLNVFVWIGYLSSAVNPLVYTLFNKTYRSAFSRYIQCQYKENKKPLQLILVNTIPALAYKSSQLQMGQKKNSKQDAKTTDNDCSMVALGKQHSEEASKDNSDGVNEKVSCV

SMILES: COc1cc(C(F)(F)F)c(OC)cc1[C@@H]1CCCNC1 [LPH-5, (S)-3-(2,5-dimethoxy-4-(trifluoromethyl)phenyl)piperidine]
- EC50 (5-HT1BR [1]): > 30000 nM
- EC50 (5-HT2CR [2]): 110 [pEC50 6.96 ± 0.07] nM
- Emax (5-HT2AR [3]): 94 ± 11%
- IC50 (5-HT2CR [4]): 300 [pIC50 6.52 ± 0.08] nM
- EC50 (5-HT2CR [5]): > 30000 nM
- IC50 (5-HT2CR [6]): 38 nM
- Emax (5-HT1BR [7]): 78%
- Emax (5-HT2AR [8]): 61 ± 11%
- EC50 (5-HT1BR [9]): 870 nM
